Measured values published in US20110183980A1, “O-BENZYL NICOTINAMIDE ANALOGS AS MGLUR5 POSITIVE ALLOSTERIC MODULATORS” (priority 2009, published 2011).

The compounds below were run against T1, rat mGluR5 (Rattus norvegicus, UniProt P31424) (assay: Potentiation of glutamate response, Ca2+ fluorescence (FDSS) in HEK cells transfected with rat mGluR5). Details: Table 1; potentiation of mGluR5 response to glutamate; read-out: EC50.
T1 construct: expressed in transfected cells; host or cells: human embryonic kidney (HEK) cells
Format: cell-based
Procedure: Human embryonic kidney (HEK) cells transfected with rat mGluR5 were plated in clear bottom assay plates for assay in a Functional Drug Screening System (FDSS). The cells were loaded with a Ca^2+-sensitive fluorescent dye (e.g., Fluo-4), and the plates were washed and placed in the FDSS instrument. After establishment of a fluorescence baseline for twelve seconds, the compounds of the present invention were added to the cells, and the response in cells was measured. Five minutes later, an mGluR5 agonist (e.g., glutamate, 3,5-dihydroxyphenylglycine, or quisqualate) was added to the cells, and the response of the cells was measured. Potentiation of the agonist response of mGluR5 by the compounds in the present invention was observed as an increase in response to non-maximal concentrations of agonist (here, glutamate) in the presence of compound compared to the response to agonist in the absence of compound.
The above described assay operated in two modes. In the first mode, a range of concentrations of the present compounds were added to cells, followed by a single fixed concentration of agonist. If a compound acted as a potentiator, an EC50 value for potentiation and a maximum extent of potentiation by the compound at this concentration of agonist was determined by non-linear curve fitting. In the second mode, several fixed concentrations of the present compounds were added to various wells on a plate, followed by a range of concentrations of agonist for each concentration of present compound; the EC50 values for the agonist at each concentration of compound were determined by non-linear curve fitting. A decrease in the EC50 value of the agonist with increasing concentrations of the present compounds (a leftward shift of the agonist concentration-response curve) is an indication of the degree of mGluR5 potentiation at a given concentration of the present compound. An increase in the EC50 value of the agonist with increasing concentrations of the present compounds (a rightward shift of the agonist concentration-response curve) is an indication of the degree of mGluR5 antagonism at a given concentration of the present compound. The second mode also indicates whether the present compounds also affect the maximum response to mGluR5 to agonists.

T1 sequence (P31424 21-1203): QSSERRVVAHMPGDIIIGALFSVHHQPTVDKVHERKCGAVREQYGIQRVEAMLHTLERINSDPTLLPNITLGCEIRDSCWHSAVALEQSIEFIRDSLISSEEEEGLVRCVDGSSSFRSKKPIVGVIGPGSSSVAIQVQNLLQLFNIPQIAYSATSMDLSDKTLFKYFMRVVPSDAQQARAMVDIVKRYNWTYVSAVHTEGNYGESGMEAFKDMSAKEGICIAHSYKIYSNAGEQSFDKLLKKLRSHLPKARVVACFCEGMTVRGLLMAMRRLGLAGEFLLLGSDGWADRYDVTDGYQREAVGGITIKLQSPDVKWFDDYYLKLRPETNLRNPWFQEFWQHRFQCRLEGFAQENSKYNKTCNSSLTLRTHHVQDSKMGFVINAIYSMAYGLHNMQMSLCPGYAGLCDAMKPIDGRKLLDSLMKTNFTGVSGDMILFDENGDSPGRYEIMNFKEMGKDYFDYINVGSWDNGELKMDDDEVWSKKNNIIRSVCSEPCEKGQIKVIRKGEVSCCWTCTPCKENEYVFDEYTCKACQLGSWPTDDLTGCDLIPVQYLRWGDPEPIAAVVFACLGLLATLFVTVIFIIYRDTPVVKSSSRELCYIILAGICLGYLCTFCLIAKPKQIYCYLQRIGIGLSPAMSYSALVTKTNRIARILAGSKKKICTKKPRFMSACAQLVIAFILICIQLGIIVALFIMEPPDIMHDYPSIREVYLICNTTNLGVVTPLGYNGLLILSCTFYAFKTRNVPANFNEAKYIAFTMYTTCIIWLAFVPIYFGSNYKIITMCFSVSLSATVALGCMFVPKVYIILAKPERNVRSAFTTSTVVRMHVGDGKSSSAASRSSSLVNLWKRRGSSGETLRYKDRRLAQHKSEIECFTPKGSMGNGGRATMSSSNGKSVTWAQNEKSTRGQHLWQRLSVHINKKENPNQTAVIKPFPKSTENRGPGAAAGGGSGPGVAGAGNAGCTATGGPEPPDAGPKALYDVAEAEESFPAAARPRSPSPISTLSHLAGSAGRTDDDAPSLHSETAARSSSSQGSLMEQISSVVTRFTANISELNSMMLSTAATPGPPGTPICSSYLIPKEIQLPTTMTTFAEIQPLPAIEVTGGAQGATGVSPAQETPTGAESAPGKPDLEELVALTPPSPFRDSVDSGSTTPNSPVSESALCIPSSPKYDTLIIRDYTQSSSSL

Compound	EC50 [µM]
O=C(NC1CCC1)c1ccc(OCc2ccccc2F)nc1 [Example 1.2f.2]	0.27
O=C(NCC1CC1)c1ccc(OCc2ccccc2)nc1 [Example 1.2a.7]	0.45
O=C(Nc1ccccc1)c1ccc(OCc2ccccc2)nc1 [Example 1.2a.14]	0.38
C[C@@H](NC(=O)c1ccc(OCc2ccccc2)nc1)C1CCCCC1 [Example 1.2a.19]	0.04
N#Cc1cccc(COc2ccc(C(=O)NC3CCCCC3)cn2)c1 [Example 2.3a.7]	0.095
O=C(c1ccc(OCc2ccccc2)nc1)N1CCC1 [Example 1.2a.10]	3.7
O=C(Nc1nccs1)c1ccc(OCc2ccccc2)nc1 [Example 1.2a.18]	0.52
Cc1nc(OCc2ccccc2)ccc1C(=O)NCC1CC1 [Example 1.2b.2]	1.6
O=C(NC1CCC1)c1ccc(OCc2ccccc2)nc1 [Example 1.2a.9]	0.34
O=C(NC1CCCCC1)c1ccc(OCc2ccc(F)cc2)nc1 [Example 2.3a.6]	0.75
O=C(NC1CCCCC1)c1ccc(OCc2ccncc2)nc1 [Example 1.2i.3]	1.2

The next lines start with the values.

EC50 [µM]	Compound
1.2	O=C(NC1CCC1)c1ccc(OCc2ccc(F)cc2)nc1 [Example 2.3b.2]
0.24	Cc1cccc(COc2ccc(C(=O)Nc3ccccn3)cn2)c1 [Example 1.2g.1]
0.17	C[C@@H](NC(=O)c1ccc(OCc2ccccc2)nc1)C1CC1 [Example 1.2a.22]
0.1	Cc1cccc(COc2ccc(C(=O)NC3CCCCC3)cn2)c1 [Example 1.2g.3]
0.04	O=C(NC1CCCCC1)c1ccc(OCc2cccc(F)c2)nc1 [Example 1.2c.6]
0.4	CC(C)(C)NC(=O)c1ccc(OCc2cccc(F)c2)nc1 [Example 1.2c.5]
0.14	O=C(Nc1ccc(F)cc1F)c1ccc(OCc2ccccc2)nc1 [Example 1.2a.5]

Same assay, conditions: Table 2; potentiation of mGluR5 response to glutamate; read-out: EC50

Compound	EC50 [µM]
COc1cc(C(=O)NCCC(C)(C)C)cnc1OCc1cccc(F)c1	1.9
CC(C)(C)CCNC(=O)c1cnc(OCc2ccncc2)c(C#N)c1	> 10
Cc1cc(C(=O)NCCC(C)(C)C)cnc1OCc1cccc(F)c1	1.3
Cc1cc(C(=O)N[C@H](C)C2CCCCC2)cnc1OCc1ccncc1	3.6
C[C@@H](NC(=O)c1cnc(OCc2cccc(F)c2)c(C(F)(F)F)c1)C1CCCCC1	> 10
COc1ccccc1NC(=O)c1ccc(OCc2ccccc2)nc1	3.4
CC(C)(C)CCNC(=O)c1cnc(OCc2ccncc2)c(Br)c1	3.9
Cc1cc(OCc2ccncc2)ncc1C(=O)Nc1ccc(F)cc1F	0.49
CC1CCCCC1NC(=O)c1ccc(OCc2ccccc2)nc1 (stereo not drawn)	0.036
Cc1cc(C(=O)Nc2ccc(F)cc2F)cnc1OCc1cccc(F)c1	> 10

More lines, now with the values ahead:

EC50 [µM]	Compound
1.3	CC[C@@H](C)NC(=O)c1ccc(OCc2cccc(F)c2)nc1
4.2	CC(COC(C)(C)C)NC(=O)c1ccc(OCc2cccc(F)c2)nc1 (stereo not drawn)
> 10	COc1ccccc1COc1ccc(C(=O)N[C@H](C)C(C)(C)C)cn1
0.0066	C[C@@H](NC(=O)c1ccc(OCc2cccc(F)c2)nc1)C1CCC1
> 10	C[C@H](CN1CCC(C(F)(F)F)CC1)NC(=O)c1ccc(OCc2cccc(F)c2)nc1
0.15	C[C@@H](NC(=O)c1ccc(OCc2cccc(F)c2)nc1)C(C)(C)O
> 10	CC(NC(=O)c1ccc(OCc2cccc(F)c2)nc1)C1CCCCO1 (stereo not drawn)
> 10	C[C@]1(O)CCC[C@@H]1NC(=O)c1ccc(OCc2cccc(F)c2)nc1
> 10	CC1(CCNC(=O)c2ccc(OCc3cccc(F)c3)nc2)COC1
0.021	CC(C)[C@@H](C)NC(=O)c1ccc(OCc2cccc(F)c2)nc1
0.3	O=C(NC(C1CC1)C1CC1)c1ccc(OCc2cccc(F)c2)nc1
> 10	C[C@H](NC(=O)c1ccc(OCc2cccc(F)c2)nc1Cl)C(C)(C)C
1.1	CC(C)(C)CC(C)(C)NC(=O)c1ccc(OCc2cccc(F)c2)nc1

Same assay, conditions: read-out: EC50 as an mGluR5 potentiator

EC50 [µM]	Compound
> 10	C[C@H](NC(=O)c1ccc(OCc2ccccc2)nc1)C1CCCCC1 [(S)-6-(benzyloxy)-N-(1-cyclohexylethyl)nicotinamide]
